This test deals with T1, human LPA1 (Homo sapiens, UniProt Q92633).
T1 construct: expressed in transfected cells; host or cells: CHO-K1
Kind of test: In vitro LPA1 calcium flux antagonist assay - Bioduro protocol. It is filed as cell-based. The conditions noted are these: CHO-K1 cells overexpressing human LPA1 and G15a, LPA challenge at EC80. On the procedure: In Vitro LPA1 Calcium Flux Antagonist Assay—Bioduro Protocol
CHO-K1 cells overexpressing human LPA1 and G15a were seeded at a total volume of 20 μL (15000 cells/well) into Matrigel pre-coated 384-well plates (corning −3764) and incubated at 37° C. After overnight incubation, the cells were serum starved for 4 h. Assays were performed in dye loading buffer containing 1× Fluo-8 AM (AAT Bioquest, 21080) and 2.5 mM probenecid (Thermo Fisher, 36400) in HBSS/20 mM Hepes. After cell starvation, the medium was replaced with 20 μL of dye loading buffer and incubated at 37° C., for 30 min. Then 5 μL of 5× compound titrated in dye loading buffer was added to the cells and incubated for 30 min followed by LPA challenge at EC80. Calcium mobilization was measured on a FLIPR Tetra (MSD). For LPA EC80 determination, starved cells were incubated with 20 μL of dye loading buffer for 1 h, then 5 μL of 5×LPA titrated in dye loading buffer was added to the cells. Calcium signals induced by LPA was monitors on a FLIPR.
Percentage inhibition is calculated using the following formula: % Inhibition=100%×(1−(mean RFU of test sample−mean RFU of DMSO)/(mean RFU of LPA control−mean RFU of DMSO)).
Table B3 and Table B4 show the biological activity of compounds in in vitro LPA1 Calcium flux antagonist assay—Bioduro protocol.

Where [1] appears, read: calcium mobilization on FLIPR Tetra, read-out: IC50.
Where [2] appears, read: Table B3, read-out: Activity (IC50 class).

Structures are written as SMILES. Where two headings read alike, the source gives them in different places.

T1 sequence (Q92633 whole entry): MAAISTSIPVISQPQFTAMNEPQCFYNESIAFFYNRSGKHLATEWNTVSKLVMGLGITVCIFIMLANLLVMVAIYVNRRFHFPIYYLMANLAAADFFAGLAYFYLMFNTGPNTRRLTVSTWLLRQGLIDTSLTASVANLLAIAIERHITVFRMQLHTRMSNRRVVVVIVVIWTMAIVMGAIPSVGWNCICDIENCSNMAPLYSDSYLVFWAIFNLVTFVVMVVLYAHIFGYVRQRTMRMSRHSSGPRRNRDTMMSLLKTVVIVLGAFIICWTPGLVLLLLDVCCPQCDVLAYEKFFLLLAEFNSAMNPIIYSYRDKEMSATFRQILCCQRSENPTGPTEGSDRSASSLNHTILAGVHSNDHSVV

For `COc1cc(-c2ccc(NC3(C(=O)O)CC(O)C3)cc2COC2Cc3ccccc3C2)cc(OC)c1C` (stereo not shown) [Compound 130], the IC50 runs as follows: under setting [1], 0.191 µM; under setting [2], 0.1 to 1 µM.
As to `COc1cc(-c2ccc(NC3(C(=O)O)CCOCC3)cc2COC2Cc3ccccc3C2)cc(OC)c1C(C)O` (stereo not shown) [Compound 135], the IC50 under setting [1] amounted to 0.0278 µM and the IC50 under setting [2] was less than 0.1 µM.
For `COc1cc(-c2ccc(NC3(C(=O)O)CCOCC3)cc2COC2CCCC2)c(C(F)F)c(OC)c1C` [Compound 215], in that order: 0.0108 µM and less than 0.1 µM.
On the same counts, the results for `CCOCc1cc(NC2(C(=O)O)CCOCC2)ccc1-c1cc(OC)c(C)c(OC)c1F` [Compound 350] are 4.32 µM and more than 1 µM.
In the case of `COc1cc(OC)cc(-c2ccc(NC3(C(=O)O)CCOCC3)cc2COC2COc3ccccc32)c1` (single isomer, unassigned) [Compound 159], the IC50 is, setting by setting: under setting [1], more than 10 µM; under setting [2], more than 1 µM.
Consider `CCc1c(-c2ccc(OC3(C(=O)O)CCOCC3)cc2COC2CCCC2)cc(OC)c(C)c1OC` [Compound 194], for which the IC50 reads like this: under setting [1], 0.0798 µM; under setting [2], less than 0.1 µM.
On the same counts, the results for `COc1cc(-c2ccc(OC3(C(=O)O)CCOCC3)cc2COC2CCCC2)c(C)c(OC)c1C` [Compound 191] are 0.0343 µM and less than 0.1 µM.
With `CCOc1cccc(-c2ccc(OC3(C(=O)O)CCOCC3)cc2COC2CC2)c1C(F)F` [Compound 371], the IC50 was 0.0223 µM under setting [1] and less than 0.1 µM under setting [2].
On the same counts, the results for `CCOc1cccc(-c2ccc(NC3(C(=O)O)CCC(F)(F)CC3)cc2COC2CC2)c1C(F)F` [Compound 384] are 0.000803 µM and less than 0.1 µM.
For `COc1cc(-c2ccc(OC3(C(=O)O)CCOCC3)cc2CCC2CCOC2)c(F)c(OC)c1C` (stereo not shown) [Compound 260], in that order: 0.174 µM and 0.1 to 1 µM.
For `COc1cc(-c2ccc(OC3(C(=O)O)CCOCC3)cc2CO[C@H]2CCOC2)c(F)c(OC)c1C` [Compound 281], in that order: 0.11 µM and 0.1 to 1 µM.
As for `COc1cc(-c2ccc(OC3(C(=O)O)CCOCC3)cc2COC2CCCC2)c(Cl)c(OC)c1C` [Compound 192, 4-((2′-chloro-2-((cyclopentyloxy)methyl)-3′,5′-dimethoxy-4′-methyl-[1,1′-biphenyl]-4-yl)oxy)tetrahydro-2H-pyran-4-carboxylic acid], the IC50 was 0.0151 µM under setting [1] and less than 0.1 µM under setting [2].
On the same counts, the results for `O=C(O)C1(Nc2ccc(-c3cccc(CCO)c3F)c(COC3CC3)c2)CCOCC1` [Compound 305] are 0.711 µM and more than 1 µM.
On to `COc1cc(-c2ccc(NC3(C(=O)O)CN(C(C)=O)C3)cc2COC2Cc3ccccc3C2)cc(OC)c1C` [Compound 128], for which the IC50 by setting is: under setting [1], 0.0314 µM; under setting [2], less than 0.1 µM.
With `COc1cc(-c2ccc(NCC(C)C(=O)O)cc2COC2Cc3ccccc3C2)cc(OC)c1C` (stereo not shown) [Compound 116], the half-inhibitory concentration (IC50) is 2.16 µM under setting [1] and more than 1 µM under setting [2].
With `CCOc1cc(OC)c(F)c(-c2ccc(NC3(C(=O)O)CCOCC3)cc2COC2CCCC2)c1` [Compound 297], the 50% inhibitory concentration (IC50) by setting is: under setting [1], 0.137 µM; under setting [2], 0.1 to 1 µM.
Regarding `COc1cc(-c2ccc(NC3(C(=O)O)CCOCC3)cc2COC2CC2)c(C)c(OC)c1C` [Compound 318], the 50% inhibitory concentration (IC50) under setting [1] is 0.00947 µM and the half-maximal inhibitory concentration (IC50) under setting [2] is less than 0.1 µM.
With `COc1ccc(C)c(-c2ccc(NC3(C(=O)O)CCOCC3)cc2COC2CCCC2)c1` [Compound 173], the IC50 is, setting by setting: under setting [1], 0.314 µM; under setting [2], 0.1 to 1 µM.
In the case of `COc1cc(-c2ccc(N(C)CCC(=O)O)cc2COC2Cc3ccccc3C2)cc(OC)c1C` [Compound 107], the IC50 is 2.58 µM under setting [1] and more than 1 µM under setting [2].
As to `CCOc1cccc(-c2ccc(NC3(C(=O)O)CCC(F)(F)CC3)cc2COC2CC2)c1Cl` [Compound 385], the concentration for half-maximal inhibition (IC50) was 0.000633 µM under setting [1] and less than 0.1 µM under setting [2].
With `COc1cc(-c2ccc(NC3(C(=O)O)CCC(F)(F)CC3)cc2COC2CC2)c(F)c(OC)c1C` [Compound 347], the half-inhibitory concentration (IC50) was 0.0235 µM under setting [1] and less than 0.1 µM under setting [2].
For `CCOc1cc(OC)cc(-c2ccc(NC3(C(=O)O)CCOCC3)cc2COC2CCCC2)c1` [Compound 315], in that order: 0.024 µM and less than 0.1 µM.
On the same counts, the results for `COc1cc(-c2ccc(NC3(C(=O)O)CCC(F)(F)CC3)cc2COC2CCCC2)cc(OC)c1C` [Compound 349] are 0.0142 µM and less than 0.1 µM.
For `CCCCOCc1cc(NC2(C(=O)O)CCOCC2)ccc1-c1cc(OC)c(C)c(OC)c1C` [Compound 401], in that order: 0.00571 µM and less than 0.1 µM.
For the compound `COc1cc(-c2ccc(NC3(C(=O)O)CCN(C(C)=O)CC3)cc2COC2Cc3ccccc3C2)cc(OC)c1C` [Compound 133], the concentration for half-maximal inhibition (IC50) by setting is: under setting [1], 0.0829 µM; under setting [2], less than 0.1 µM.
For `CCOc1cc(OC)cc(-c2ccc(NC3(C(=O)O)CCOCC3)cc2COC2CC2)n1` [Compound 324], in that order: more than 10 µM and more than 1 µM.
`COc1cc(-c2ccc(NC3(C(=O)O)CCOCC3)cc2COC2CC3CC3C2)cc(OC)c1C` (stereo not shown) [Compound 182, 4-((2-((bicyclo[3.1.0]hexan-3-yloxy)methyl)-3′,5′-dimethoxy-4′-methyl-[1,1′-biphenyl]-4-yl)amino)tetrahydro-2H-pyran-4-carboxylic acid]: the IC50 runs as follows: under setting [1], 0.0097 µM; under setting [2], less than 0.1 µM.
On the same counts, the results for `CC(C)COc1cccc(-c2ccc(NC3(C(=O)O)CCOCC3)cc2COC2CCCC2)c1F` [Compound 277] are 0.0727 µM and less than 0.1 µM.
Consider `COc1cc(-c2ccc(NC3(C(=O)O)CCOCC3)cc2COC2CCCC2)c(Cl)c(OC)c1F` [Compound 261], for which the half-maximal inhibitory concentration (IC50) reads like this: under setting [1], 0.0519 µM; under setting [2], less than 0.1 µM.
On the same counts, the results for `COc1cc(-c2ccc(NC3(C(=O)O)CCOCC3)cc2COC2COc3ccccc32)c(F)c(OC)c1C` (single isomer, unassigned) [Compound 223] are 0.00476 µM and less than 0.1 µM.
On the same counts, the results for `COc1cc(-c2ccc(NC3(C(=O)O)CCOCC3)cc2COC2CC2)c(Cl)c(OC)c1C` [Compound 293] are 0.00572 µM and less than 0.1 µM.
On the same counts, the results for `COc1cc(-c2ccc(NC3(C(=O)O)CCCC3)cc2COC2Cc3ccccc3C2)cc(OC)c1C` [Compound 112] are 0.188 µM and 0.1 to 1 µM.
Consider `COc1cc(-c2ccc(NC3(C(=O)O)CCOCC3)cc2CNC2CCCC2)cc(OC)c1C` [Compound 153], for which the IC50 by setting is: under setting [1], more than 10 µM; under setting [2], more than 1 µM.
For `COc1cc(-c2ccc(OC3(C(=O)O)CCOCC3)cc2COC2CC2)c(Cl)c(OC)c1C` [Compound 365], in that order: 0.0187 µM and less than 0.1 µM.
For `COc1cc(-c2ccc(NC3(C(=O)O)CCOCC3)cc2COCC2(C#N)CC2)cc(OC)c1C` [Compound 151], in that order: 1.58 µM and more than 1 µM.
In the case of `COc1cc(-c2ccc(NC3(C(=O)O)CCOCC3)cc2COC2CCCCC2)c(F)c(OC)c1C` [Compound 276], the IC50 reads like this: under setting [1], 0.0254 µM; under setting [2], less than 0.1 µM.
On the same counts, the results for `COc1cc(OC)cc(-c2c(C)cc(NC3(C(=O)O)CCOCC3)cc2COC2CCCC2)c1` [Compound 156] are 0.162 µM and 0.1 to 1 µM.
On the same counts, the results for `COC(=O)N1CCC(Nc2ccc(-c3cc(OC)cc(OC)c3)c(COC3CCCC3)c2)(C(=O)O)CC1` [Compound 157] are 0.112 µM and 0.1 to 1 µM.
On to `COc1cc(OC)c(Cl)c(-c2ccc(NC3(C(=O)O)CCOCC3)cc2COCC(C)C)c1` [Compound 398], for which the half-maximal inhibitory concentration (IC50) was 0.104 µM under setting [1] and 0.1 to 1 µM under setting [2].
With `COc1cc(OC2CC2)c(F)c(-c2ccc(NC3(C(=O)O)CCOCC3)cc2COC2CCCC2)c1` [Compound 249, 4-((2-((cyclopentyloxy)methyl)-3′-cyclopropoxy-2′-fluoro-5′-methoxy-[1,1′-biphenyl]-4-yl)amino)tetrahydro-2H-pyran-4-carboxylic acid], the IC50 by setting is: under setting [1], 0.00113 µM; under setting [2], less than 0.1 µM.
On to `CCOC1CC(Nc2ccc(-c3cc(OC)c(C)c(OC)c3)c(COC3Cc4ccccc4C3)c2)(C(=O)O)C1` (stereo not shown) [Compound 137], for which the 50% inhibitory concentration (IC50) was 0.0452 µM under setting [1] and less than 0.1 µM under setting [2].
On the same counts, the results for `CCOc1cncc(-c2ccc(NC3(C(=O)O)CCOCC3)cc2COC2CC2)c1C` [Compound 407] are 0.0965 µM and less than 0.1 µM.
For `O=C(O)C1(Nc2ccc(-c3cccc(OC4CC4)c3F)c(COC3CC3)c2)CCOCC1` [Compound 289], in that order: 0.051 µM and less than 0.1 µM.
On the same counts, the results for `COc1cc(-c2c(C)cc(NC3(C(=O)O)CCOCC3)cc2COC2CCCC2)nc(OC)c1C` [Compound 253, 4-((3-((cyclopentyloxy)methyl)-4-(4,6-dimethoxy-5-methylpyridin-2-yl)-5-methylphenyl)amino)tetrahydro-2H-pyran-4-carboxylic acid] are 0.0543 µM and less than 0.1 µM.

Values taken from US11884627B2, “Compounds and compositions for treating conditions associated with LPA receptor activity” (Lhotse Bio, Inc., priority 2022, dated 2024).
